Experimental data from patent US8859496B2, “Pharmaceutical composition using connective-tissue growth factor” (Postech Academy-Industry Foundation, priority 2010, dated 2014).
No end group written: not given here.

How the values were obtained:
FPRL1 = biological target: T1, FPRL1 (Homo sapiens, UniProt P25090); experiment: Intracellular Ca2+ measurement (fluo-3-AM) in FPRL1/RBL, vector/RBL or FPR/RBL cells; format: cell-based
T1 construct: expressed in transfected cells; host or cells: rat basophil leukemia RBL-2H3 cells, kept under G418
T1 sequence (P25090 1-351): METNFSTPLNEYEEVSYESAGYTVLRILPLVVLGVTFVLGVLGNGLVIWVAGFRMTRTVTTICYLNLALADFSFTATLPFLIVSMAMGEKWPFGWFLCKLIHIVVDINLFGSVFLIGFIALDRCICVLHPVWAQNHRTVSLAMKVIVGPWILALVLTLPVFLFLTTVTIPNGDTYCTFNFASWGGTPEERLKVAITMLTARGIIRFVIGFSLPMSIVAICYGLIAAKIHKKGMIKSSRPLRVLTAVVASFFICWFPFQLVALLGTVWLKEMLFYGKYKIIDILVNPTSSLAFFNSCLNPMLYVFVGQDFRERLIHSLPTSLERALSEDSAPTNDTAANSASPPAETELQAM
Protocol: (§1) FPRL1/RBL, vector/RBL or FPR/RBL cells were cultured in a fluo-3-AM working solution containing 0.03% (w/v) plutonic F-127 (Molecular Probes) at 37° C. for 1 hour so that the final concentration of fluo-3-AM became 20 uM/L. After the culturing, fluo-3-AM fluorescence occurred at 488 nm with high-power Ar^+ laser in the cells, and the emission band was measured at 530 nm with photomultiplier. Fluorescence signal was detected using confocal laser scanning system (LSM 510 Meta; Carl Zeiss, Jena, Germany) equipped with Nikon E-600 Eclipse microscope. Fluorescence intensities before adding CTGF (F0) and after adding CTGF (F) were measured. Change in the intracelullar Ca^2+ concentration [Ca^2+]i was indicated by F/F0 ratio. From each cell, 50 to 120 images were scanned.
Since activation of FPRL1 increases intracellular Ca^2+ concentration, the inventors confirmed whether CTGF linker polypeptide activates FPRL1 to finally increase intracellular Ca^2+ concentration by the <Experiment method 8>, and the results are shown in FIG. 12.

HUVECs [1] = experiment: HUVEC tube formation on Matrigel; format: cell-based, human
Protocol: Meanwhile, to analyze tube formation, HUVECs were inoculated on the previously polymerized Matrigel (BD Biosciences) layer together with a certain amount of linker polypeptide, rhCTGF or VEGF-A165. After culturing for 18 hours, the shape of the cells was observed by phase-contrast microscopy, and photographed with 40× magnification. By measuring the length of tubes 5 times in LPF (low-power fields) randomly selected from each well using image-Pro Plus v4.5 (Media Cybernetics, Silver Spring, Md.), the degree of tube formation was quantified.
(§2) First, 20 ng/ml of VEGF-A was administered to HUVECs, the degree of cell proliferation, cell migration, or tube formation was confirmed by the <Experiment method 9>, and the results are shown in FIGS. 22 to 24. At this time, FPRL1 antagonist WRW4 was additionally added.

HUVECs [2] = experiment: Intracellular Ca2+ concentration in HUVECs; format: cell-based, human
Protocol: as §1
And, HUVECs were treated with the CTGF linker polypeptide or rhCTGF at various concentrations for 1 hour, it was confirmed whether intracellular Ca^2+ concentration increases by the above method, and the results are shown in FIG. 15.

HUVECs [3] = experiment: HUVEC proliferation assay ([3H]-thymidine); format: cell-based, human
Protocol: For proliferation assay, HUVECs were plate cultured in a gelatin-coated 24-well culture dish at 2×10^4 cells/well and allowed to adhere overnight. 4 hours after serum was depleted, the cells were treated with various mitogen (CTGF linker polypeptide, CTGF) for 48 hours. [^3H]-thymidine (1 μCi, Amersham International) was added to each well 6 hours before final culture. The inserted [^3H]-thymidine was extracted in 0.2 M NaOH and 0.1% SDS solution at 37° C. for 1 hour. Radioactivity was measured using liquid scintillation counter (Beckmann Instruments), which was repeated three times, and the result was indicated by mean±standard deviation per minute.
as §2

HUVECs [4] = experiment: ERK phosphorylation in HUVECs (immunoblot); format: cell-based, human
Protocol: Vector/RBL cells, FPR/RBL cells, FPRL1/RBL cells, and HUVECs were cultured to confluence, and serum-starved. The stimulated cells (1×10^5 cells) were washed with PBS twice, dissolved in 1 ml of sample buffer (50 mM Tris-HCl, 100 mM NaCl, 0.1% SDS, 1% Nonidet P-40, 50 mM NaF, 1 mM Na3VO4, 1 μg/ml aprotinin, 1 μg/ml pepstatin, and 1 μg/ml leupeptin), heated at 95° C. for 30 seconds, separated with SDS-PAGE, and then, transferred to a nitrocellulose film. Immunoblot was conducted using anti-phospho-ERK (extracellular signal regulated kinase)1/2 (Thr^202/Tyr^204)(Cell Signaling Technology, Beverly, Mass., USA), anti-ERK1/2 (Cell Signaling Technology, Beverly, Mass., USA), anti-CTGF (Abcam, Cambridge, Mass., USA), anti-Actin (Sigma, St. Louis, Mo., USA), or anti-Flag (Sigma, St. Louis, Mo., USA) antibody, and then, the film was visualized with a chemiluminescence substrate (Amersham Pharmacia).
Meanwhile, HUVECs were treated with the CTGF linker polypeptide or rhCTGF at various concentrations for 5 minutes, cell lysate was obtained, and then, immuboblot was conducted with anti-phospho ERK1/2 antibody, and the results are shown in FIG. 14.

Ca2+ concentration increase, cell specificity (FPRL1; confocal microscope, FPRL1/RBL, vector/RBL or FPR/RBL cells)	Substance	Ca2+ concentration, concentration dependence (FPRL1; FPRL1/RBL cells)	Ca2+ increasing activity compared to rhCTGF and WKYMVm (FPRL1; FPRL1/RBL cells)	tube formation of HUVECs (HUVECs [1]; 18 hours, compared to recombinant CTGF)	intracellular Ca2+ concentration in HUVECs (HUVECs [2]; various concentrations, 1 hour)	proliferation of HUVECs (HUVECs [3]; 48 hours, [3H]-thymidine)	ERK phosphorylation in HUVECs (HUVECs [4]; various concentrations, 5 minutes)	effect of antagonist on intracellular Ca2+ increase by CTGF linker polypeptide (FPRL1; WRW4 10 uM)	effect of antagonist on HUVEC tube formation induced by VEGF-A (HUVECs [1]; VEGF-A 20 ng/ml, WRW4 10 uM)	effect of antagonist on HUVEC tube formation induced by CTGF linker polypeptide (HUVECs [1]; WRW4 10 uM)	effect of antagonist on Ca2+ increase by CTGF linker polypeptide in HUVECs (HUVECs [2]; WRW4 10 uM)	effect of antagonist on HUVEC proliferation by VEGF-A (HUVECs [3]; VEGF-A 20 ng/ml plus WRW4)	effect of antagonist on ERK phosphorylation in HUVECs (HUVECs [4]; WRW4 10 uM)
increased only in FPRL1/RBL cells	EWVCDEPKDQTVVGPALAAYRLEDTFGPDPTMIRANCLV (EWVCDEPKDQTVVGPALAAYRLEDTFGPDPTMIRANCLV-NH2; cysteine pairing not given here) [CTGF linker polypeptide]	increases dependently upon the concentration of CTGF linker polypeptide	more effective than rhCTGF and is similar to positive control of FPRL1 agonist WKYMVm	induces tube formation of HUVECs more effectively than recombinant CTGF	increases intracellular Ca^2+ concentration in a concentration-dependent manner	induces proliferation of HUVECs in a concentration-dependent manner, the degree is not statistically significant	ERK phosphorylation is effectively induced	–	–	–	–	–	–
–	WRWWWW (FPRL1 antagonist) [WRW4]	–	–	–	–	–	–	the degree of intracellular Ca^2+ concentration increase by CTGF linker polypeptide decreases	the tube formation is not induced	the tube formation is not be induced	that's not the case when the cells are treated with FPRL1 antagonist WRW4	did not exhibit statistically significant inhibition of HUVECs proliferation by VEGF-A	ERK phosphorylation is inhibited
